Source: patent publication US5792765A, “Substituted oxazolidinones” (Bayer Aktiengesellschaft, priority 1996, dated 1998)
In brackets after ≈: the same amount, converted by molar mass. Like-named read-outs stand apart in the source and are kept apart here.

How the values were obtained:
Format in all cases: cell-based
E. coli Neumann = assay: MIC by serial dilution on Iso-Sensitest Agar; conditions: Escherichia coli
Description: (§1) The minimum inhibitory concentrations (MIC) were determined by serial dilution methods on Iso-Sensitest Agar (Oxoid). For each test substance, a number of agar plates were prepared which, with an in each case doubled dilution, contained decreasing concentrations of the active compound. The agar plates were inoculated with the multipoint inoculator (Denley). For inoculation, overnight cultures of the caustive organisms were used which had previously been diluted such that each inoculation point contained about 10^4 colony-forming particles. The inoculated agar plates were incubated at 37° C., and the microorganism growth was read off after about 20 hours. The MIC value (μg/ml) indicates the lowest active compound concentration at which no growth could be detected using the naked eye.

Klebs. 57 USA = assay: MIC by serial dilution on Iso-Sensitest Agar
Description: as §1

Psdm. Bonn = assay: MIC by serial dilution on Iso-Sensitest Agar
Description: as §1

Staph. 133 = assay: MIC by serial dilution on Iso-Sensitest Agar; conditions: 37° C., about 20 hours
Description: as §1

Staph. 25701 = assay: MIC by serial dilution on Iso-Sensitest Agar; conditions: 37° C., about 20 hours
Description: as §1

Staph. 48N = assay: MIC by serial dilution on Iso-Sensitest Agar; conditions: 37° C., about 20 hours
Description: as §1

Staph. 9TV = assay: MIC by serial dilution on Iso-Sensitest Agar; conditions: 37° C., about 20 hours
Description: as §1

[1] = tested on: Mycobacterium smegmatis DSM 43061; assay: MIC by broth microdilution, rapidly growing mycobacteria; conditions: Mycolicibacterium smegmatis, DSM43061; strain DSM 43061; inoculum 2.20E + 04 /ml; 37° C., 2-4 days
Description: (§2) For rapidly growing mycobacteria the MIC determination was carried out following the broth microdilution method described by Swenson [cf. J. M. Swenson, C. Thomberry, U. A. Silcox, Rapidly growing mycobacteria. Testing of susceptibility to 34 antimicrobial agents by broth microdilution. Antimicrobial Agents and Chemotherapy Vol. 22, 186-192 (1982)]. A deviation from this was the brain-heart extract medium treated with 0.1% by volume of Tween 80.
(§3) The mycobacterial strains used were obtained from the DSM (German Collection of Microorganisms, Brunswick). They were incubated at 37° C. in a humid chamber.
(§4) The MIC values were read off after 2-4 days when the preparation-free controls had become turbid due to growth.

[2] = tested on: Mycoplasma pneumoniae strain PI 1428; assay: MIC determination with Mycoplasma pneumoniae, serial microdilution; conditions: PI1428, PPLO medium, anaerobic, 37° C., Alamar Blue
Description: MIC determination with Mycoplasma pneumoniae
Mycoplasma pneumoniae strain PI 1428 was cultured under anaerobic conditions in PPLO medium, to which 1% glucose, 2.5% yeast extract, 20% horse serum (donor horse serum) and 0.002% Phenol Red were added. MIC determinations were carried out following the serial microdilution method in liquid medium described by ter Laak and coworkers (E. A. ter Laak, A. Pijpers, J. H. Noordergraaf, E. Schoevers, J. H. M. Verheijden: Comparison of Methods for in vitro Testing of Susceptibility of Porcine Mycoplasma Species to Antimicrobial Agents; Antimicrobial Agents and Chemotherapy, Vol. 35, 228-233 (1991)). At the time of the start of the colour change of the medium of the preparation-free control from red to yellow, 10% by volume of Alamar Blue was added. The incubation at 37° C. was continued for about 10 hours and the MIC defined as the value at which the medium having the smallest preparation concentration remained unchanged blue.

[3] = tested on: Mycobacterium smegmatis DSM 43078; assay: MIC by broth microdilution, rapidly growing mycobacteria; conditions: Mycolicibacterium smegmatis, DSM43078; strain DSM 43078; inoculum 4.20E + 04 /ml; 37° C., 2-4 days
Description: as §2, §3, §4

[4] = E. coli Neumann, 37° C., about 20 hours, read-out: MIC
[5] = Klebs. 57 USA, 37° C., about 20 hours, read-out: MIC
[6] = Psdm. Bonn, 37° C., about 20 hours, read-out: MIC

| SMILES | MIC (Staph. 133) | MIC (Staph. 25701) | MIC (Staph. 48N) | MIC (Staph. 9TV) | MIC (E. coli Neumann; [4]) | MIC (Klebs. 57 USA; [5]) | MIC (Psdm. Bonn; [6]) | MIC [1] | MIC [2] | MIC [3] | MIC (E. coli Neumann; 20 h) | MIC (Klebs. 57 USA; 20 h) | MIC (Psdm. Bonn; 20 h) |
| --- | --- | --- | --- | --- | --- | --- | --- | --- | --- | --- | --- | --- | --- |
| CCC(=S)NC[C@H]1CN(c2ccc3ccsc3c2)C(=O)O1 [Example 11] | 0.5 µg/mL (≈ 1.56 µM) | 0.25 µg/mL (≈ 0.78 µM) | 0.5 µg/mL (≈ 1.56 µM) | 0.25 µg/mL (≈ 0.78 µM) | – | – | – | – | – | – | > 64 µg/mL | > 64 µg/mL | > 64 µg/mL |
| CNC(=S)NC[C@H]1CN(c2ccc(-c3ccncc3)s2)C(=O)O1 [Example 12] | – | 1 µg/mL (≈ 2.87 µM) | 1 µg/mL (≈ 2.87 µM) | 0.5 µg/mL (≈ 1.43 µM) | > 64 µg/mL | > 64 µg/mL | > 64 µg/mL | 8 µg/mL | 2 µg/mL (≈ 5.74 µM) | – | – | – | – |
| CNC(=S)NC[C@H]1CN(c2ccc(-c3cccnc3)s2)C(=O)O1 [Example 14] | 1 µg/mL (≈ 2.87 µM) | 1 µg/mL (≈ 2.87 µM) | 1 µg/mL (≈ 2.87 µM) | 0.5 µg/mL (≈ 1.43 µM) | > 64 µg/mL | > 64 µg/mL | > 64 µg/mL | 8 µg/mL | 8 µg/mL (≈ 23 µM) | 4 µg/mL | – | – | – |
| CC(=S)NC[C@H]1CN(c2cc3ccc(Cl)cc3s2)C(=O)O1 [Example 43] | 0.5 µg/mL (≈ 1.47 µM) | 0.5 µg/mL (≈ 1.47 µM) | 0.5 µg/mL (≈ 1.47 µM) | 0.5 µg/mL (≈ 1.47 µM) | > 64 µg/mL | > 64 µg/mL | > 64 µg/mL | – | – | – | – | – | – |
| NNC(=O)c1ccncc1 [Isoniazide, reference compound] | – | – | – | – | – | – | – | 4 µg/mL | – | 2 µg/mL | – | – | – |

The next lines start with results.

| MIC (Staph. 133) | MIC (Staph. 25701) | MIC (Staph. 48N) | MIC (Staph. 9TV) | MIC (E. coli Neumann; [4]) | MIC (Klebs. 57 USA; [5]) | MIC (Psdm. Bonn; [6]) | MIC [1] | MIC [2] | MIC [3] | SMILES | MIC (E. coli Neumann; 20 h) | MIC (Klebs. 57 USA; 20 h) | MIC (Psdm. Bonn; 20 h) |
| --- | --- | --- | --- | --- | --- | --- | --- | --- | --- | --- | --- | --- | --- |
| 0.25 µg/mL (≈ 0.75 µM) | 0.25 µg/mL (≈ 0.75 µM) | – | ≤ 0.125 µg/mL | > 64 µg/mL | > 64 µg/mL | > 64 µg/mL | 2 µg/mL | 2 µg/mL (≈ 6 µM) | 1 µg/mL | CC(=S)NC[C@H]1CN(c2ccc(-c3ccncc3)s2)C(=O)O1 [Example 13] | – | – | – |
| 0.25 µg/mL (≈ 0.75 µM) | 0.25 µg/mL (≈ 0.75 µM) | 0.5 µg/mL (≈ 1.5 µM) | ≤ 0.125 µg/mL | > 64 µg/mL | > 64 µg/mL | > 64 µg/mL | 1 µg/mL | – | 0.5 µg/mL | CC(=S)NC[C@H]1CN(c2ccc(-c3cccnc3)s2)C(=O)O1 [Example 15] | – | – | – |
| 0.25 µg/mL (≈ 0.709 µM) | 0.25 µg/mL (≈ 0.709 µM) | 0.25 µg/mL (≈ 0.709 µM) | ≤ 0.125 µg/mL | 64 µg/mL (≈ 182 µM) | > 64 µg/mL | > 64 µg/mL | 0.25 µg/mL | – | 0.25 µg/mL | CNC(=S)NC[C@H]1CN(c2ccc3c(c2)sc(=O)n3C)C(=O)O1 [Example 20] | – | – | – |
| 0.25 µg/mL (≈ 0.678 µM) | 0.5 µg/mL (≈ 1.36 µM) | 0.5 µg/mL (≈ 1.36 µM) | 0.25 µg/mL (≈ 0.678 µM) | > 64 µg/mL | > 64 µg/mL | > 64 µg/mL | – | 4 µg/mL (≈ 10.9 µM) | – | CNC(=S)NC[C@H]1CN(c2ccc3nc(SC)sc3c2)C(=O)O1 [Example 23] | – | – | – |
| < 0.125 µg/mL | 0.25 µg/mL (≈ 0.707 µM) | 0.25 µg/mL (≈ 0.707 µM) | ≤ 0.125 µg/mL | > 64 µg/mL | > 64 µg/mL | > 64 µg/mL | – | – | – | CSc1nc2ccc(N3C[C@H](CNC(C)=S)OC3=O)cc2s1 [Example 26] | – | – | – |
| < 0.125 µg/mL | > 0.125 µg/mL | > 0.125 µg/mL | ≤ 0.125 µg/mL | 64 µg/mL (≈ 190 µM) | 64 µg/mL (≈ 190 µM) | > 64 µg/mL | – | – | – | CC(=S)NC[C@H]1CN(c2ccc3c(c2)sc(=O)n3C)C(=O)O1 [Example 42] | – | – | – |
